This assay has as its target T1, ABL1 M351T (Homo sapiens, UniProt P00519, M351T).
T1 construct: purchased Thermo Fisher Scientific (Life Technologies) SelectScreen
Description: SelectScreen LanthaScreen. The class given is binding. As to conditions: read-out: % displacement. A digest of the protocol:
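SelectScreen broad panel; activity (Z'LYTE, Adapta) plus binding formats. ATP: Km app for CSF1R Z'LYTE; 10 for CAMK1 Adapta. Readout = % per kinase.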

`CN(C(=O)CN1CCOCC1)c1ccc2sc3c(-c4cccc5c(=O)cc(N6CC7CCC(C6)O7)oc45)cccc3c2c1` [NU5455]: the inhibition at 1 µM was -1%.

Values taken from paper PMC6934184, “Selective DNA-PKcs inhibition extends the therapeutic index of localized radiotherapy and chemotherapy” (The Journal of Clinical Investigation, 2019).
